# Measured values reported in patent US20240059689A1, “PURINE DERIVATIVES AS ANTICANCER AGENTS” (Tango Therapeutics, Inc., priority 2021, published 2024).
# Legend:
# USP1-UAF1 = USP1-UAF1 (Homo sapiens, UniProt O94782); test: Ubiquitin Rhodamine assay of USP1-UAF1 activity; format: biochemical
# Protocol: Certain compounds of the disclosure were assessed for USP1-UAF1 activity in a Ubiquitin Rhodamine assay as described in Biology Example 1.
# MDA-MB-436 = test: Viability assay, BRCA1 mutant cell line MDA-MB-436; format: cell-based; settings: Homo sapiens, MDA-MB-436, viability, BRCA1 mutant MDA-MB-436; read-out: MDA-MB-436 rel IC50
# Excerpt: (§1) Table 1 also indicates IC50 values in a viability assay for a non-isogenic pair of BRCA1 mutant (column 5-MDA-MB-436) and BRCA1 WT (column 6—HCC1954) cell lines. These values indicate the effect of treatment with compound on cell survival.
# HCC1954 = test: Viability assay, BRCA1 WT cell line HCC1954; format: cell-based; settings: Homo sapiens, HCC1954, viability, read-out: HCC1954 rel IC50
# Excerpt: as §1
# monoubiquitinated PCNA = test: AlphaLISA assay measuring monoubiquitinated PCNA in MDA-MB-436; format: cell-based; settings: Homo sapiens, MDA-MB-436, monoubiquitinated PCNA, read-out: Alpha Lisa IC50
# Excerpt: Table 1 also indicates IC50 values for exemplary compounds in an AlphaLISA assay measuring monoubiquitinated PCNA in a BRCA1 mutant cell line (MDA-MB-436; column 7).
# USP1-UAF1, sequence (O94782 whole entry): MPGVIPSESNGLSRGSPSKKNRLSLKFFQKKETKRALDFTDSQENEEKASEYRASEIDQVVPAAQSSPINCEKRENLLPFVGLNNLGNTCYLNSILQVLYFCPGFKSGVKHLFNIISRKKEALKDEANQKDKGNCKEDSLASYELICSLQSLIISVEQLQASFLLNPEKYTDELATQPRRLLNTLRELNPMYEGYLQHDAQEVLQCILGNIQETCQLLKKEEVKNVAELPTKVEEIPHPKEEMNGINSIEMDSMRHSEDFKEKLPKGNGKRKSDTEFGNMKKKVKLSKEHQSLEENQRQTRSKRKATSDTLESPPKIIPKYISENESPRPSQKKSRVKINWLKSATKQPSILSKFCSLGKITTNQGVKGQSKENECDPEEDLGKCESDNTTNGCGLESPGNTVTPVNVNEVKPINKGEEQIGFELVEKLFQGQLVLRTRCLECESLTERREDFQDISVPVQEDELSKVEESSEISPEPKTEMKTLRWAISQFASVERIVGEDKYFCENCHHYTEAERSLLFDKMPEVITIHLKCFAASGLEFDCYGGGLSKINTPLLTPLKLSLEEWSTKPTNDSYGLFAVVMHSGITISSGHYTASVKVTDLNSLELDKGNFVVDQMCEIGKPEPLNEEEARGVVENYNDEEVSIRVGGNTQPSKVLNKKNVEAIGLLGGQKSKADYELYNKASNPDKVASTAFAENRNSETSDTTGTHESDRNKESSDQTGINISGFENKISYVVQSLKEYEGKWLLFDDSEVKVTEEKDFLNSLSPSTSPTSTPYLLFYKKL
# USP1-UAF1, sequence (Q8TAF3 whole entry partner): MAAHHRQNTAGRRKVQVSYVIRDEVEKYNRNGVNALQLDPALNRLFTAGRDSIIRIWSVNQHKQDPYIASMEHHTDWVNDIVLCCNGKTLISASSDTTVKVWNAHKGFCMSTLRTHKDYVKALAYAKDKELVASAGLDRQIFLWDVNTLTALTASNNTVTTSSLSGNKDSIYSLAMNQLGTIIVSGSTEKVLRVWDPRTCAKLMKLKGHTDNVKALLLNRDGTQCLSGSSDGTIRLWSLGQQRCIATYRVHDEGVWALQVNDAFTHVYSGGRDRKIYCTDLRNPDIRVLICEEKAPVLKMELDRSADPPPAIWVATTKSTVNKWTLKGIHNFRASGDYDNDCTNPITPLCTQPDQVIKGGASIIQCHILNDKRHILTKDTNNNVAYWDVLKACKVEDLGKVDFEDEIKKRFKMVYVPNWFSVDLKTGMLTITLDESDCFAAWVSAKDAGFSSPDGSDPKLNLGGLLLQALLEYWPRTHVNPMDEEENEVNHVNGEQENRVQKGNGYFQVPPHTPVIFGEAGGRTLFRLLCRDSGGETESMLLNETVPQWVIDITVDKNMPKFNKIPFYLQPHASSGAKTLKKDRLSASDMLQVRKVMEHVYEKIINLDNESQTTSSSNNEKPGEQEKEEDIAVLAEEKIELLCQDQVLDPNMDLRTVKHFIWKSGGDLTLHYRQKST
IC50 (USP1-UAF1) [nM],IC50 (MDA-MB-436) [nM],IC50 (HCC1954) [nM],IC50 (monoubiquitinated PCNA) [nM],Structure (SMILES)
30 to 100,< 100,≥ 10000,< 100,"COc1ncnc(C2CC2)c1-c1ncc2c(n1)n(Cc1ccc(-c3nc(C(F)(F)F)cn3C)cc1)c(=N)n2CC(F)F [Example T-123, 2-(4-cyclopropyl-6-methoxy-pyrimidin-5-yl)-7-(2,2-difluoroethyl)-9-[[4-[1-methyl-4-(trifluoromethyl)imidazol-2-yl]phenyl]methyl]purin-8-imine]"
< 30,< 100,≥ 10000,< 100,"COc1cc(C(F)(F)F)nn1-c1ccc(Cn2c(=N)n(CC(F)(F)F)c3cnc(-c4c(C)cnn4C(C)C)nc32)cc1 [Example T-124, 2-(2-isopropyl-4-methyl-pyrazol-3-yl)-9-[[4-[5-methoxy-3-(trifluoromethyl)pyrazol-1-yl]phenyl]methyl]-7-(2,2,2-trifluoroethyl)purin-8-imine]"
30 to 100,100 to 250,250 to 10000,100 to 250,"Cn1cc(C(F)(F)F)nc1-c1ccc(Cn2c(=N)n(CC(F)(F)F)c3cnc(-c4cccnc4OC(F)F)nc32)cc1 [Example T-125, 2-[2-(difluoromethoxy)-3-pyridyl]-9-[[4-[1-methyl-4-(trifluoromethyl)imidazol-2-yl]phenyl]methyl]-7-(2,2,2-trifluoroethyl)purin-8-imine]"
30 to 100,< 100,≥ 10000,< 100,COc1ncnc(C2CC2)c1-c1ncc2c(n1)n(Cc1cc(F)c(-n3nc(C(F)(F)F)cc3OC)c(F)c1)c(=N)n2CC(F)(F)F [Example T-127]
30 to 100,< 100,≥ 10000,< 100,"COc1ncnc(C2CC2)c1-c1ncc2c(n1)n([C@H](C)c1ccc(-c3nc(C(F)(F)F)cn3C)cc1)c(=N)n2C [Example T-131, 2-(4-cyclopropyl-6-methoxy-pyrimidin-5-yl)-7-methyl-9-[(1R)-1-[4-[1-methyl-4-(trifluoromethyl)imidazol-2-yl]phenyl]ethyl]purin-8-imine]"
30 to 100,< 100,≥ 10000,< 100,"CCn1c(=N)n(Cc2ccc(-c3nc(C(F)(F)F)cn3C)cc2)c2nc(-c3c(OC)ncnc3C3CC3)ncc21 [Example T-139, 2-(4-cyclopropyl-6-methoxy-pyrimidin-5-yl)-7-ethyl-9-[[4-[1-methyl-4-(trifluoromethyl)imidazol-2-yl]phenyl]methyl]purin-8-imine]"
30 to 100,< 100,≥ 10000,< 100,"Cn1cc(C(F)(F)F)nc1-c1ccc(Cn2c(=N)n(C)c3cnc(-c4c(OC(F)(F)F)ccnc4C4CC4)nc32)cc1 [Example T-140, 2-[2-cyclopropyl-4-(trifluoromethoxy)-3-pyridyl]-7-methyl-9-[[4-[1-methyl-4-(trifluoromethyl)imidazol-2-yl]phenyl]methyl]purin-8-imine]"

# More lines, now with the values behind:
Structure (SMILES),IC50 (USP1-UAF1) [nM],IC50 (MDA-MB-436) [nM],IC50 (HCC1954) [nM],IC50 (monoubiquitinated PCNA) [nM]
"CNc1nc(OC)c(-c2ncc3c(n2)n(Cc2ccc(-c4nc(C(F)(F)F)cn4C)cc2)c(=N)n3C)c(C2CC2)n1 [Example T-122, 4-cyclopropyl-5-[8-imino-7-methyl-9-[[4-[1-methyl-4-(trifluoromethyl)imidazol-2-yl]phenyl]methyl]purin-2-yl]-6-methoxy-N-methyl-pyrimidin-2-amine]",100 to 10000,100 to 250,≥ 10000,250 to 10000
"COc1ncnc(C2CC2)c1-c1ncc2c(n1)n(Cc1cc(F)c(-c3nc(C(F)(F)F)cn3C)c(F)c1)c(=N)n2CC(F)(F)F [Example T-126, 2-(4-cyclopropyl-6-methoxy-pyrimidin-5-yl)-9-[[3,5-difluoro-4-[1-methyl-4-(trifluoromethyl)imidazol-2-yl]phenyl]methyl]-7-(2,2,2-trifluoroethyl)purin-8-imine]",30 to 100,< 100,≥ 10000,< 100
COc1ncnc(C2CC2)c1-c1ncc2c(n1)n(Cc1ccc(-c3nc(C(F)(F)F)sc3C)cc1)c(=N)n2CC(F)(F)F [Example T-128],< 30,< 100,250 to 10000,< 100
"Cc1cnn(C(C)C)c1-c1ncc2c(n1)n(Cc1ccc(-c3nc(C(F)(F)F)cn3C)cc1)c(=N)n2CC(F)(F)F [Example T-130, 2-(2-isopropyl-4-methyl-pyrazol-3-yl)-9-[[4-[1-methyl-4-(trifluoromethyl)imidazol-2-yl]phenyl]methyl]-7-(2,2,2-trifluoroethyl)purin-8-imine]",< 30,< 100,≥ 10000,< 100
CCn1cc(C(F)(F)F)nc1-c1ccc(Cn2c(=N)n(CC(F)(F)F)c3cnc(-c4c(OC)ncnc4C4CC4)nc32)cc1 [Example T-132],30 to 100,< 100,≥ 10000,< 100
"COCCn1c(=N)n(Cc2ccc(-c3nc(C(F)(F)F)cn3C)cc2)c2nc(-c3c(OC)ncnc3C3CC3)ncc21 [Example T-134, 2-(4-cyclopropyl-6-methoxy-pyrimidin-5-yl)-7-(2-methoxyethyl)-9-[[4-[1-methyl-4-(trifluoromethyl)imidazol-2-yl]phenyl]methyl]purin-8-imine]",100 to 10000,100 to 250,≥ 10000,250 to 10000
"[2H]C([2H])([2H])Oc1ncnc(C2CC2)c1-c1ncc2c(n1)n(Cc1ccc(-c3nc(C(F)(F)F)cn3C(C)C)cc1)c(=N)n2CC(F)(F)F [Example T-135, 2-[4-cyclopropyl-6-(trideuteriomethoxy)pyrimidin-5-yl]-9-[[4-[1-isopropyl-4-(trifluoromethyl)imidazol-2-yl]phenyl]methyl]-7-(2,2,2-trifluoroethyl)purin-8-imine]",30 to 100,< 100,≥ 10000,100 to 250
"COc1ccnc(C2CC2)c1-c1ncc2c(n1)n(Cc1ccc(-n3nc(C(F)(F)F)cc3OC)cc1)c(=N)n2CC(F)(F)F [Example T-136, 2-(2-cyclopropyl-4-methoxy-3-pyridyl)-9-[[4-[5-methoxy-3-(trifluoromethyl)pyrazol-1-yl]phenyl]methyl]-7-(2,2,2-trifluoroethyl)purin-8-imine]",30 to 100,100 to 250,≥ 10000,100 to 250
"COc1ncnc(C2(C)CC2)c1-c1ncc2c(n1)n(Cc1ccc(-c3nc(C(F)(F)F)cn3C)cc1)c(=N)n2CC(F)(F)F [Example T-137, 2-[4-methoxy-6-(1-methylcyclopropyl)pyrimidin-5-yl]-9-[[4-[1-methyl-4-(trifluoromethyl)imidazol-2-yl]phenyl]methyl]-7-(2,2,2-trifluoroethyl)purin-8-imine]",100 to 10000,100 to 250,≥ 10000,100 to 250
"CCOc1cc(C(F)(F)F)nn1-c1ccc(Cn2c(=N)n(CC(F)(F)F)c3cnc(-c4c(C(F)(F)F)cnn4C)nc32)cc1 [Example T-138, 9-[[4-[5-ethoxy-3-(trifluoromethyl)pyrazol-1-yl]phenyl]methyl]-2-[2-methyl-4-(trifluoromethyl)pyrazol-3-yl]-7-(2,2,2-trifluoroethyl)purin-8-imine]",30 to 100,100 to 250,250 to 10000,100 to 250
